{"source": "patent US10987317B2", "about": "“Inhibition of glutaminase C” (Cornell University, priority 2009, dated 2021)", "format_in_all_cases": "cell-based", "key": {"[1]": {"test_system": "NIH 3T3 cells transfected with oncogenic Dbl", "experiment": "Dbl-induced cellular transformation (focus-forming assays, growth in low serum, soft agar)", "protocol": "(§1) FIGS. 1A-E illustrate that the small molecule 968 inhibiting cellular transformation. […] Cells were fixed and stained with crystal violet for counting of foci. Right: 968 was serially diluted (10, 5, 2.5, and 1.25 μM) and evaluated for its ability to inhibit focus formation. […] After 6 days, the cells are counted. 100% represents the number of Dbl-transformed cells counted in the absence of 968 (27.5×10^4 cells). Data represent the average of 3 experiments (±s.d.). […] At the indicated times, the cells are counted. Data represent the average of 3 experiments (±s.d.).\nFIGS. 2A-G illustrate effects of 968 on the transforming activity of constitutively active Rho GTPases and human breast cancer cells. […] Cells are scored after 14 days and plotted as the percentage of the total number of colonies greater than […] in diameter. Data represent the average of 3 experiments (±s.d.). […] Data represent the average of 3 experiments (±s.d.). […] Data represent the average of 3 experiments (±s.d.). […] After 24 hours at 37° C. the migratory cells are fixed, stained with GIEMSA, and counted. Data represent the average of 3 experiments (±s.d.). […] Data represent the average of 3 experiments (±s.d.). […] Data represent the average of 3 experiments (±s.d.). […] Data represent the average of 3 experiments (±s.d.).\nFIGS. 5A-C illustrate comparative abilities of 968 and other benzo[a]phenanthrldinones to inhibit the transforming activity of oncogenic Dbl and H-Ras. […] Histograms show the relative levels of Dbl-induced focus formation for the different treatments, compared to Dbl-induced focus formation measured in the presence of DMSO (i.e. solvent control). Data represent the average of 3 experiments (mean±s.d.). […] Histograms show the relative levels of Ras(G12V)-induced focus formation measured for the different treatments, compared to Ras(G12V)-induced focus formation measured in the presence of DMSO (solvent control). Data represent the average of 3 experiments (mean±s.d.). FIG. 5C NIH 3T3 cells stably expressing H-Ras(G12V) that are cultured in DMEM supplemented with 1% calf serum, with the indicated amounts of 968. After 6 days, cells are trypsinized and counted. 100% represents the number of cells counted in the absence of 968, i.e. 26×10^4 cells. Data represent the average of 3 experiments (mean±s.d.)."}, "normal NIH 3T3 cells": {"test_system": "normal NIH 3T3 cells", "experiment": "Growth and morphology of control cells", "conditions": "10% calf serum; 5-10 μM", "protocol": "as §1"}, "[2]": {"molecular_target": "T1, V5-tagged GAC from Dbl-transformed NIH 3T3 cells (Mus musculus, UniProt D3Z7P3)", "T1 construct": "expressed in transfected cells; host or cells: NIH 3T3 cells stably expressing oncogenic Dbl", "T1 sequence (D3Z7P3 55-603 isoform D3Z7P3-2 limits assumed)": "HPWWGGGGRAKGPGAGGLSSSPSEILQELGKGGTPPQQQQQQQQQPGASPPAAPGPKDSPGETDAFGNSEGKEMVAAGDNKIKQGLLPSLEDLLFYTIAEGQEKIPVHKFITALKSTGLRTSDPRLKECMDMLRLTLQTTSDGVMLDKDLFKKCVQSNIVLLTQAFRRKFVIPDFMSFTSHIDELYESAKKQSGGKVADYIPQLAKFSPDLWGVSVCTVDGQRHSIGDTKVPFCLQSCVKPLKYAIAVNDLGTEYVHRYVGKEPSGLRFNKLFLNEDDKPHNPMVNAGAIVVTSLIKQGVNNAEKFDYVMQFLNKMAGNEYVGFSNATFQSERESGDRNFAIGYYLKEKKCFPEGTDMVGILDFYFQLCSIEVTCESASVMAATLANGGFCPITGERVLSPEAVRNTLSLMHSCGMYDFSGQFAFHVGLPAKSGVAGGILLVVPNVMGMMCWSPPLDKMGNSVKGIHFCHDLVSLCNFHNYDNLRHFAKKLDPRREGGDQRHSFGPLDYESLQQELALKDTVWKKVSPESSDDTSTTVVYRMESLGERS", "experiment": "GA activity of immunoprecipitated V5-GAC", "conditions": "absence of phosphate", "source_text": "FIGS. 4A-E illustrate the role of glutaminase C activity in cellular transformation. […] Data represent the average of 3 experiments (±s.d.). […] Data represent the average of 3 experiments (±s.d.). […] 100% represents the activity measured in untreated Dbl-transformed cells. The data represent the average of 2 experiments. […] 100% represents the activity measured in untreated SKBR3 cells. The data represent the average of 2 experiments. […] Data represent the average of 3 experiments (±s.d.).\nNIH 3T3 cells or NIH 3T3 cells stably expressing the Dbl oncogene, were transiently transfected with DNA encoding a V5-tagged GAC. The cells were then harvested and the ectopically expressed GAC was isolated by immunoprecipitation via the V5 tag. The VS-GAC obtained from one of the Dbl samples was additionally treated with alkaline phosphtase under dephosphorylation conditions. The samples were then assayed for glutaminase activity in the absence of phosphate (top panel) and the relative expression levels of VS-GAC was determined by Western blotting using an anit-V5 antibody (bottom panel).\nNIH 3T3 cells stably expressing oncogenic Dbl were transiently transfected with DNA encoding VS-tagged GAC, and cells were treated with either 968 or BA-968 ([…]) as indicated for 48 hours. The cells were then harvested and the ectopically expressed GAC was isolated by immunoprecipitation via the V5 tag. The samples were then assayed for glutaminase activity in the absence of phosphate (top panel) and the relative expression levels of VS-GAC was determined by Western blotting using an anti-V5 antibody (bottom panel)."}, "[3]": {"molecular_target": "T2, V5-tagged GAC in NIH 3T3 cells stably expressing Dbl (Mus musculus, UniProt D3Z7P3)", "T2 construct": "expressed in transfected cells; host or cells: NIH 3T3 cells stably expressing oncogenic Dbl", "T2 sequence (D3Z7P3 55-603 isoform D3Z7P3-2 limits assumed)": "T1 sequence (D3Z7P3 55-603 isoform D3Z7P3-2 limits assumed)", "experiment": "GAC phosphorylation by 2-D gel and Western blotting", "conditions": "10 μM for 48 hours", "protocol": "NIH 3T3 cells stably expressing the Dbl oncogene, were transiently transfected with DNA encoding a VS-tagged GAC, and then one sample was treated with 968 (10 μM) for 48 hours. The cells were then harvested and the ectopically expressed GAC was isolated by immunoprecipitation via the V5 tag. The samples were then subjected to 2-D gel analysis to separate the V5-GAC by charge and size, and the V5-tagged GAC was visualized by Western blotting using an anti-V5 antibody. […] Since 968 inhibits the enzymatic activity of GAC, and the phosphorylation appears to be required for its basal enzyme activity, it appears that 968 might be functioning to inhibit glutaminase C by inhibiting the ability of at least one site on glutaminase C to become phosphorylated."}}, "note": "Entries after “also recorded” stand apart in the source; their conditions may differ.", "data": [{"smiles": "CN(C)c1ccc(C2Nc3ccc4ccccc4c3C3=C2C(=O)CC(C)(C)C3)cc1Br", "note": "(stereo not shown) [Compound 968, 5-[3-bromo-4-(dimethylamino)phenyl]-2,2-dimethyl-2,3,5,6-tetrahydrobenzo[a]]", "values": [{"measurement": "Dbl-induced colony formation in soft agar", "setting": "[1]; 10 μM", "value": "blocked"}, {"measurement": "reversal of 968-inhibition by cell-permeable analog of α-ketoglutarate", "setting": "[1]; focus-formation, 10 μM 968 with 7 μM dimethyl α-ketoglutarate", "value": "circumvented"}, {"measurement": "concentration at which active in blocking Dbl-induced transformation", "setting": "[1]; focus-forming assays or growth in low serum", "value": "1 to 10", "unit": "µM"}, {"measurement": "effect on growth or morphology of normal NIH 3T3 cells", "setting": "normal NIH 3T3 cells", "value": "no significant effects; also recorded: inability"}, {"measurement": "GA activity IPed from Dbl-transformed cells", "setting": "[2]; 10 μM", "value": "inhibited"}, {"measurement": "GAC activity after treatment of cells (FIG. 19)", "setting": "[2]; cells treated 10 mM for 48 hours", "value": "effective inhibitors"}, {"measurement": "phosphorylation state of GAC", "setting": "[3]", "value": "significant reduction of at least one phosphorylation state"}]}]}
